Assay results published in patent US20240423980A1, “METHODS OF PREVENTING A VENOUS THROMBOEMBOLIC EVENT” (Board of Supervisors of Louisiana State University and …, priority 2023, published 2024).

Legend:
[1] = tested on: patients with mild-to-moderate COPD; conditions: cited from earlier work
[2] = target: T1, ITGA9-VCAM1 binding (Homo sapiens, UniProt Q13797); experiment: ITGA9 binding assay (ITGA9-VCAM1 binding, cell-free)
T1 construct: purchased R&D Systems
Protocol: Turning next to FIG. 2, another aspect of the invention is shown as a ITGA9 binding assay. Briefly, purified human VCAM1 (R&D Systems) diluted to 5 μg/ml in TBS+ buffer (25 mM Tris pH 7.4, 137 mM NaCl, 2.7 mM KCl, 1 mM CaCl2, 1 Mm MgCl2, 1 mM MnC12) was added to wells of a 96-well transparent microtiter plate and incubated overnight at 4° C. Wells were washed 3 times with buffer and blocking buffer (TBS+ with 1% bovine serum albumin) was added followed by incubation for 1 hour at 37° C., and then washing. Recombinant human integrin ITGA9 (R&D Systems) was diluted to 1 μg/ml in TBS+/0.1% bovine serum albumin. Macitentan was diluted into the integrin solution and added to the washed ligand-coated plate according to a standard template with each sample repeated in triplicate. After incubation for 2 hours at room temperature, the plate was washed 3 times with 150 μl TBS+ buffer. To each well, biotinylated anti-β1 (catalog BAF1778, R&D Systems) at 1 μg/ml in TBS+/0.1% BSA was added, and the plate covered and incubated for 1 hour at RT. After washing the plate 3 times with TBS+ buffer, streptavidin conjugated horseradish peroxidase (R&D Systems) diluted in TBS+ blocking buffer was added to the wells and the plate incubated for 20 minutes at room temperature. […] After incubation for 20 minutes at RT, plates were read by colorimetric detection at 450 nm wavelength. […]

[3] = tested on: wild-type mice; experiment: In vivo venous thrombosis using IVC stenosis (DVT surgery); design: species or system mouse; conditions: 10 mg/kg; measured at 24-hr; vs vehicle; FIG. 3
Protocol: Next, we performed in vivo venous thrombosis using IVC stenosis (DVT surgery) in 30 wild-type mice and randomized them into control (vehicle, n=15) and treatment (Macitentan, 10 mg/kg, n=15) groups. The thrombus weight and incidence were measured at 24-hr.

[4] = tested on: mice with lung cancer; experiment: IVC stenosis DVT in mice with lung cancer (LLC1 cells); format: in vivo, mouse; conditions: thrombus harvested 48-hour post-stenosis, FIG. 23
Protocol: Lewis lung carcinoma (LLC1) cell line will be obtained from American Type Culture Collection (ATCC). The cell line was originally derived from a Lewis lung carcinoma of a C57BL mouse strain. The cells will be grown in Dulbecco's Modified Eagle Medium (DMEM) supplemented with 10% FCS, 2 mM L-glutamine, 100 U/ml penicillin, 100 μg/ml streptomycin, and 0.1% fungizone. The cells will be maintained at 37° C. in a humidified atmosphere with 5% CO2. The LLC1 cells (100 μL) will be injected once intravenously.
Macitentan at the dose of 2, 5 and 10 mg/kg will be administered orally once a day from the day of cancer induction until the end of the study.
Deep vein thrombosis (DVT) will be induced in mice after 14 days of tumor induction. Briefly, anesthetized mice will undergo laparotomy, the intestine will be exteriorized, and the intra renal IVC will be exposed. The IVC will then be dissected away from the aorta. For stenosis, IVC will be exposed, a space holder (30-gauge, 3-mm long needle) will be positioned on the outside of the vessel, and a permanent narrowing ligature will be placed exactly below the left renal vein. Subsequently, the needle will be removed to restrict blood flow to 80-90%. […]
Thrombus size and thrombosis incidence on day 1 and day 2 following DVT surgery will be evaluated by ultrasonography. […]

[5] = tested on: Src family of protein tyrosine kinases; conditions: cited from earlier work
[6] = target: Src (Mus musculus, UniProt P05480); conditions: in vivo dose of 1.5 mg/kg; cited from earlier work
Chain of Src (P05480 whole entry): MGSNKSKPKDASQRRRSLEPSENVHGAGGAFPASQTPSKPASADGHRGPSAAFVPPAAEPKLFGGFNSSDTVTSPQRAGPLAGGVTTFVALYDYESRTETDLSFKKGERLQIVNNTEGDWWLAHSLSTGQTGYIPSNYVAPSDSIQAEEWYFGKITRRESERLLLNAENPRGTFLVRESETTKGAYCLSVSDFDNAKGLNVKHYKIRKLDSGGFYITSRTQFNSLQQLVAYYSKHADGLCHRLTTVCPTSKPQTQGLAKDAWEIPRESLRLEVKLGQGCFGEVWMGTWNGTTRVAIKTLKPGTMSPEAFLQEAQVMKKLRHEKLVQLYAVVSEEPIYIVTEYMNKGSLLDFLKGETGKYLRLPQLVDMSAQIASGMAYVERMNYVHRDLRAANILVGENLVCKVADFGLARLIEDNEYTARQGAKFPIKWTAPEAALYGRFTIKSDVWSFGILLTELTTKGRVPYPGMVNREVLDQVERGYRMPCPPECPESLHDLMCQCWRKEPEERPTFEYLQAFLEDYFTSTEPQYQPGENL

T1 sequence (Q13797 30-981 limits assumed): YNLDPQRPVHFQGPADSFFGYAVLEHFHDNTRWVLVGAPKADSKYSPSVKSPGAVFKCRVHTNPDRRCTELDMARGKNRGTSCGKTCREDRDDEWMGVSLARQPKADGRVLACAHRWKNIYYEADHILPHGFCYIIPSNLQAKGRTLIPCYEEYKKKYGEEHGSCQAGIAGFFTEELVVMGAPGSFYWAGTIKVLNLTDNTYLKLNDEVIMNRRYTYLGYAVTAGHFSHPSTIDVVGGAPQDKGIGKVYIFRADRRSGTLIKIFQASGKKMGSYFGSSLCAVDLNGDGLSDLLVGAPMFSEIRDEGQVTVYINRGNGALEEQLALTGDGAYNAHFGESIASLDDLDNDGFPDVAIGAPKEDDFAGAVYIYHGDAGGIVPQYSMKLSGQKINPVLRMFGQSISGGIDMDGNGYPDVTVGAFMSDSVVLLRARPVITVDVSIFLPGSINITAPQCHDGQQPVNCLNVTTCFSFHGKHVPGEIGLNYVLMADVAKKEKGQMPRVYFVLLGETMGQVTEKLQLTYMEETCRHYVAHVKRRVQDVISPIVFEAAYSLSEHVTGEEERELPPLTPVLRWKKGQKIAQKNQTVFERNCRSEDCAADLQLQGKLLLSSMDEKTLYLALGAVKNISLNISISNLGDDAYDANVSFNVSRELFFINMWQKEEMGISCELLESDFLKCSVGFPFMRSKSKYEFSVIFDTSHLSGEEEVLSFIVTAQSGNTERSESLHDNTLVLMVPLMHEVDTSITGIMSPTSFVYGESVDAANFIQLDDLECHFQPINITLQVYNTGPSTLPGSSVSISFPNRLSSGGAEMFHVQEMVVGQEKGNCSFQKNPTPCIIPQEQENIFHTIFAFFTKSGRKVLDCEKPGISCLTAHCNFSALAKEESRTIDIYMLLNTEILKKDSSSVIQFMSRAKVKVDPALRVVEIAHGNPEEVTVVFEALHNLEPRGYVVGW
T1 sequence (P05556 21-728 partner limits assumed): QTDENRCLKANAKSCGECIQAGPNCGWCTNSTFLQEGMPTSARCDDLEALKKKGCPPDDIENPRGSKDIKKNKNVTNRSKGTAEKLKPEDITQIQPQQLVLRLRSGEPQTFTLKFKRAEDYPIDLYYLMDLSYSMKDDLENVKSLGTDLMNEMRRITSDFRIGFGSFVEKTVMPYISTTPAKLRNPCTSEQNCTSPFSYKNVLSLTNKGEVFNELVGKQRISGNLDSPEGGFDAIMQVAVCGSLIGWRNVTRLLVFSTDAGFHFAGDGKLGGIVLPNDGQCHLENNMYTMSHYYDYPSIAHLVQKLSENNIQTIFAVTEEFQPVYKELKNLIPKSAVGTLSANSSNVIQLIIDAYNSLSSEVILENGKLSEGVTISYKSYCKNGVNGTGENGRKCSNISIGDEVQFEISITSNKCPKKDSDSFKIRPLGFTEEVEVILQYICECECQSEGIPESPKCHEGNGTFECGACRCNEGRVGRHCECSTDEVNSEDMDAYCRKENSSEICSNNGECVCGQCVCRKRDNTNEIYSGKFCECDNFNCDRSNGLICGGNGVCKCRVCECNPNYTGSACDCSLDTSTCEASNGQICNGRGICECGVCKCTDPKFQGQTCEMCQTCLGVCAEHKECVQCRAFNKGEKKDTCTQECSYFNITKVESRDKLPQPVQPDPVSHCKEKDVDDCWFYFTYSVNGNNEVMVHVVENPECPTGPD

Cc1c(F)cccc1NC(=O)Nc1ccc(Cl)c(S(=O)(=O)[C@H]2CCCNC2)c1O [Danirixin]
number of pneumonias ([1]; danirixin 50 mg): increased number of pneumonias
incidence of exacerbation ([1]; danirixin-treated groups, COPD patients): increased incidence of exacerbation

CCCNS(=O)(=O)Nc1ncnc(OCCOc2ncc(Br)cn2)c1-c1ccc(Br)cc1 [Macitentan]
binds to integrin α9 and inhibits its interactions with VCAM-1 [2]: inhibits its interactions with VCAM-1
inhibition of ITGA9-VCAM1 binding ([2]; Macitentan at 1 μM, FIG. 2): significantly inhibited
thrombosis incidence [3]: significantly reduced
thrombus weight [3]: significantly reduced
DVT severity (IVC thrombus weight) [4]: significantly reduced

Cc1ccc(-c2nn(C(C)(C)C)c3ncnc(N)c23)cc1 [PP1]
IC50 [5]: 170 nM
inhibition of Src in vivo [6]: significant inhibition
